Experimental findings from ChEMBL document CHEMBL5303304, “EUbOPEN Chemogenomics Library - IncuCyte” (2023) are described below.

Type in all cases: toxicity, cell-based
In one series the test system is HEK-293T. The series is described as follows: Incucyte cell viability with HEK293T. The settings on record: human, 10 µM, compound concentration 10 uM.
In the next series the test system is Fibroblast. The series is described as follows: Incucyte cell viability with human fibroblast. The following applies: 10 µM, compound concentration 10 uM.
A further series deals with U2OS. In words: Incucyte cell viability with U2OS. The settings on record: human, 10 µM, compound concentration 10 uM.
Further: unitless GR value; below 1 slowed growth and below 0 cell loss.

For the compound `O=S1(=O)NCN(C2CC2)c2ccc(F)cc21`, the “Growth Rate” value is on record as 0.98 in the series on HEK-293T (0 h, replicate number 1); 0.78 with HEK-293T (0 h, replicate number 2); 0.62 in the series with HEK-293T (6 h, replicate number 2); 0.5 in the series with Fibroblast (0 h, replicate number 1); 0.39 in the series on Fibroblast (0 h, replicate number 2); -0.11 with Fibroblast (18 h, replicate number 1). Besides, the “Growth Rate” value came to 0.6 with Fibroblast (24 h, replicate number 1); 0.91 in the series on Fibroblast (24 h, replicate number 2); 0.05 in the series on U2OS (0 h, replicate number 1); 0.68 in the series on U2OS (6 h, replicate number 1); 0.82 with U2OS (6 h, replicate number 2); 0.99 in the series on U2OS (18 h, replicate number 1). Also, the “Growth Rate” value in the series with U2OS (18 h, replicate number 2) is given as 0.88; in the series with U2OS (24 h, replicate number 1), 0.9; with U2OS (24 h, replicate number 2), 0.93.
With `CCn1c(-c2nonc2N)nc2cncc(C(=O)N3CC[C@H](N)C3)c21.Cl`, the “Growth Rate” value was -0.71 with HEK-293T (0 h, replicate number 1); -0.15 in the series on HEK-293T (0 h, replicate number 2); -1 with Fibroblast (0 h, replicate number 1); -0.88 in the series on Fibroblast (0 h, replicate number 2); -1 in the series on U2OS (0 h, replicate number 1); 0.88 in the series with U2OS (18 h, replicate number 2). The “Growth Rate” value with U2OS (24 h, replicate number 2) was 0.79.
For the compound `CC[C@](C)(O)C#Cc1cc2c(ccn2-c2cc(OC)nc(N)n2)cn1`, the “Growth Rate” value in the series on HEK-293T (0 h, replicate number 2) was 0.37; in the series on HEK-293T (6 h, replicate number 1), -0.14; in the series on HEK-293T (6 h, replicate number 2), 0.55; in the series on HEK-293T (12 h, replicate number 1), 0.4; with HEK-293T (18 h, replicate number 1), 0.76; in the series with HEK-293T (24 h, replicate number 1) it was 0.84. The “Growth Rate” value in the series with Fibroblast (0 h, replicate number 1) is given as -0.3; in the series with Fibroblast (6 h, replicate number 1), -0.12; with Fibroblast (12 h, replicate number 1) it was -1; in the series with Fibroblast (18 h, replicate number 1), 0.63; with Fibroblast (24 h, replicate number 2), 0.83; with U2OS (0 h, replicate number 2), -0.28.
For the compound `C[C@H](CCC(=O)[O-])[C@H]1CC[C@H]2[C@@H]3[C@@H](O)C[C@@H]4C[C@H](O)CC[C@]4(C)[C@H]3CC[C@]12C.[Na+]`, the “Growth Rate” value was 0.59 with HEK-293T (0 h, replicate number 1); 1 in the series with HEK-293T (24 h, replicate number 2); 0.84 with Fibroblast (0 h, replicate number 2); 0.88 with Fibroblast (6 h, replicate number 1); 0.93 in the series on Fibroblast (6 h, replicate number 2); 0.91 in the series with Fibroblast (12 h, replicate number 2). For the same compound, the “Growth Rate” value with Fibroblast (18 h, replicate number 1) was 0.83; with Fibroblast (18 h, replicate number 2), 0.77; with Fibroblast (24 h, replicate number 2), 0.88; in the series on U2OS (0 h, replicate number 1) it was -0.51; with U2OS (0 h, replicate number 2), 0.8; with U2OS (6 h, replicate number 1), 0.4. Moreover, the “Growth Rate” value is on record as 0.47 in the series with U2OS (12 h, replicate number 1); 1 with U2OS (12 h, replicate number 2); 0.72 in the series with U2OS (18 h, replicate number 1).
On to `COC(=O)C1=C(C)NC(C)=C(C(=O)OC(C)C)C1c1cccc2nonc12` (centres undefined) [ISRADIPINE], for which the “Growth Rate” value with HEK-293T (0 h, replicate number 1) is given as 0.8; in the series with HEK-293T (0 h, replicate number 2) it was 0.32; in the series on Fibroblast (6 h, replicate number 1), -0.03; in the series on Fibroblast (12 h, replicate number 1) it was -1; with Fibroblast (18 h, replicate number 1), -0.41; in the series on Fibroblast (24 h, replicate number 1), 0.29. Besides, the “Growth Rate” value in the series with U2OS (0 h, replicate number 1) is on record as 0.46; in the series with U2OS (0 h, replicate number 2) it was 0.25; in the series on U2OS (6 h, replicate number 2) it was 0.83; in the series on U2OS (12 h, replicate number 1), 1; with U2OS (12 h, replicate number 2), 0.87; in the series on U2OS (18 h, replicate number 2), 0.89. Besides, the “Growth Rate” value in the series on U2OS (24 h, replicate number 2) stood at 0.9.
As for `CC(C)NC(=O)[C@H]1CCC[C@H]1Nc1nc(Nc2ccc(CN(C)C)cc2)ncc1Br.Cl`, the “Growth Rate” value in the series on HEK-293T (0 h, replicate number 2) is recorded as -1; in the series with HEK-293T (6 h, replicate number 1), -0.59; in the series on HEK-293T (6 h, replicate number 2), -0.5; in the series with HEK-293T (12 h, replicate number 1), -0.3; in the series with HEK-293T (12 h, replicate number 2), -0.36; in the series with HEK-293T (18 h, replicate number 1) it was -0.04. Besides, the “Growth Rate” value with HEK-293T (18 h, replicate number 2) is -0.19; with HEK-293T (24 h, replicate number 1) it was 0.2; in the series on HEK-293T (24 h, replicate number 2) it was 0.01; with Fibroblast (6 h, replicate number 1) it was -0.53; with Fibroblast (6 h, replicate number 2) it was -0.82; in the series on Fibroblast (12 h, replicate number 1), -0.42. In addition, the “Growth Rate” value with Fibroblast (12 h, replicate number 2) is listed as -0.59; with Fibroblast (18 h, replicate number 1), -0.37; in the series with Fibroblast (18 h, replicate number 2), -0.51; with Fibroblast (24 h, replicate number 1), -0.38; with Fibroblast (24 h, replicate number 2), -0.46; in the series on U2OS (0 h, replicate number 1), -0.38. Moreover, the “Growth Rate” value in the series on U2OS (0 h, replicate number 2) was 0.74; with U2OS (6 h, replicate number 1), 0.07; with U2OS (6 h, replicate number 2) it was 0.17; with U2OS (12 h, replicate number 1) it was -0.31; in the series with U2OS (12 h, replicate number 2), 0.15; in the series on U2OS (18 h, replicate number 1), 0.3. Besides, the “Growth Rate” value in the series with U2OS (18 h, replicate number 2) is on record as 0.24; with U2OS (24 h, replicate number 1), 0.32; in the series with U2OS (24 h, replicate number 2), 0.2.
In the case of `COC1(C#Cc2ccc(Cl)c(-c3ncc4c(n3)-c3sc(NC(C)=O)nc3CC4)c2)CCN(C)CC1`, the “Growth Rate” value was -1 in the series with HEK-293T (0 h, replicate number 2); -0.41 in the series on HEK-293T (6 h, replicate number 1); -0.37 in the series with HEK-293T (6 h, replicate number 2); -0.29 with HEK-293T (12 h, replicate number 1); -0.19 in the series on HEK-293T (12 h, replicate number 2); -0.17 with HEK-293T (18 h, replicate number 1). The “Growth Rate” value is -0.1 in the series on HEK-293T (18 h, replicate number 2); -0.05 with HEK-293T (24 h, replicate number 1); 0.05 in the series on HEK-293T (24 h, replicate number 2); 0.02 in the series on Fibroblast (6 h, replicate number 1); -0.27 in the series with Fibroblast (6 h, replicate number 2); 0.03 in the series with Fibroblast (12 h, replicate number 1). The “Growth Rate” value is listed as -0.12 with Fibroblast (12 h, replicate number 2); -0.03 with Fibroblast (18 h, replicate number 1); -0.14 in the series on Fibroblast (18 h, replicate number 2); -0.11 in the series on Fibroblast (24 h, replicate number 1); -0.15 with Fibroblast (24 h, replicate number 2); 0.64 in the series with U2OS (0 h, replicate number 1). Further, the “Growth Rate” value in the series with U2OS (0 h, replicate number 2) stood at 0.98; in the series on U2OS (6 h, replicate number 1), 0.79; in the series on U2OS (6 h, replicate number 2), 0.62; in the series on U2OS (12 h, replicate number 1) it was 0.91; in the series on U2OS (12 h, replicate number 2) it was 0.66; in the series with U2OS (18 h, replicate number 1), 0.64. In addition, the “Growth Rate” value with U2OS (24 h, replicate number 1) was 0.78; in the series on U2OS (24 h, replicate number 2), 0.62.
As for `CC(C)(C)c1cc(NC(=O)c2csc(Nc3ccccn3)n2)no1`, the “Growth Rate” value in the series on HEK-293T (6 h, replicate number 1) is on record as -0.14; in the series with HEK-293T (6 h, replicate number 2), -0.51; in the series with HEK-293T (12 h, replicate number 1), 0.04; with HEK-293T (12 h, replicate number 2), -0.02; in the series on HEK-293T (18 h, replicate number 1), 0.08; with HEK-293T (18 h, replicate number 2) it was 0.01. The “Growth Rate” value was 0.31 with HEK-293T (24 h, replicate number 1); 0.2 in the series on HEK-293T (24 h, replicate number 2); 0.76 in the series on Fibroblast (6 h, replicate number 1); -0.67 with Fibroblast (6 h, replicate number 2); 0.84 in the series with Fibroblast (12 h, replicate number 1); 0.03 in the series on Fibroblast (12 h, replicate number 2). Also, the “Growth Rate” value is on record as 0.21 with Fibroblast (18 h, replicate number 1); 0.35 with Fibroblast (18 h, replicate number 2); 0.31 in the series with Fibroblast (24 h, replicate number 1); 0.35 in the series with Fibroblast (24 h, replicate number 2); 0.58 in the series with U2OS (0 h, replicate number 1); 0.51 in the series with U2OS (6 h, replicate number 1). Besides, the “Growth Rate” value in the series with U2OS (12 h, replicate number 1) was 0.72; in the series with U2OS (12 h, replicate number 2) it was 0.69; with U2OS (18 h, replicate number 1), 0.81; in the series on U2OS (24 h, replicate number 1), 0.65; with U2OS (24 h, replicate number 2), 0.97.
As to `Cl.O=C1c2cccc3c2[C@H](CCC3)CN1[C@@H]1CN2CCC1CC2` [PALONOSETRON HYDROCHLORIDE], the “Growth Rate” value in the series on HEK-293T (0 h, replicate number 1) is listed as 0.61; with HEK-293T (6 h, replicate number 1) it was 0.51; in the series on HEK-293T (6 h, replicate number 2), -0.08; in the series with HEK-293T (12 h, replicate number 1), 0.41; in the series with HEK-293T (12 h, replicate number 2), 0.03; in the series on HEK-293T (18 h, replicate number 1), 0.55. Also, the “Growth Rate” value in the series on HEK-293T (18 h, replicate number 2) is given as 0.08; in the series with HEK-293T (24 h, replicate number 1) it was 0.34; in the series on HEK-293T (24 h, replicate number 2), 0.19; in the series on Fibroblast (0 h, replicate number 2), 0.54; in the series on Fibroblast (6 h, replicate number 1), -0.99; with Fibroblast (24 h, replicate number 2) it was 0.92. The “Growth Rate” value is reported as -0.52 with U2OS (0 h, replicate number 1); -0.79 with U2OS (0 h, replicate number 2); 0.92 with U2OS (24 h, replicate number 1); 0.98 in the series on U2OS (24 h, replicate number 2).
As to `CCOC(=O)c1ccc(N2C(=O)C(O)=C(C(=O)c3ccc(OC)cc3)C2c2ccc(F)cc2)cc1` (centres undefined), the “Growth Rate” value in the series on HEK-293T (0 h, replicate number 2) is given as 0.85; in the series on HEK-293T (6 h, replicate number 1) it was 0.75; in the series on HEK-293T (18 h, replicate number 2) it was 0.83; with HEK-293T (24 h, replicate number 2) it was 0.85; in the series with Fibroblast (0 h, replicate number 2), -0.75; with Fibroblast (6 h, replicate number 1), 0.14. In addition, the “Growth Rate” value in the series on Fibroblast (12 h, replicate number 1) is listed as -1; in the series with Fibroblast (18 h, replicate number 1), -0.29; in the series on U2OS (0 h, replicate number 1), 0.54; in the series with U2OS (0 h, replicate number 2), 0.5; in the series with U2OS (6 h, replicate number 2), 0.87; with U2OS (12 h, replicate number 2), 0.89. Also, the “Growth Rate” value came out at 0.96 in the series with U2OS (18 h, replicate number 1); 1 in the series with U2OS (18 h, replicate number 2); 0.74 with U2OS (24 h, replicate number 2).
